Laboratory results as given in US20170348277A1, “CANNABINOID FORMULATION INCLUDING A V[…] OCULAR DELIVERY OF THE SAME” (priority 2017, published 2017).

Assays:
[1] = Vasodilators studied for increasing the rate of delivery of cannabinoids to a desired site of action; settings: vasodilator in cannabinoid formulation
From the text: Various vasodilators have been studied that have the desired effect of increasing the rate of delivery of cannabinoids to a desired site of action. […] The classes of vasodilators that may be substituted for the MSM of the present invention either in a preferred combination or in isolation. These classes include: • Alpha-adrenoceptor antagonists (alpha-blockers) • Angiotensin converting enzyme (ACE) inhibitors • Angiotensin receptor blockers (ARBs) • Beta2-adrenoceptor agonists (β2-agonists) • Calcium-channel blockers (CCBs) • Centrally acting sympatholytics • Direct acting vasodilators • Endothelin receptor antagonists • Ganglionic blockers • Nitrodilators • Phosphodiesterase inhibitors • Potassium-channel openers • Renin inhibitors

[2] = oral; cited from earlier work

## methylsulfonylmethane [MSM]
[1]
  increasing the rate of delivery of cannabinoids to a desired site of action: sufficiently effective
[2]
  safe dose when taken orally: up to 2 gm/kg of body weight per day
